In patent publication US20240075050A1, “Methods and Compositions for Treating Leucine Rich Repeat Kinase 2 (LRRK2)-Associated Disorder or Condition” (University of Connecticut, priority 2022, published 2024):

Legend:
[1] = test system: LRRK2; experiment: Overexpressed LRRK2 levels in HEK 293T cells, Western blot; format: cell-based, human
Method: FIGS. 2A-2T depicts that AICAr, the precursor of ATIC substrate, regulates LRRK2 expression levels and neuronal toxicity. FIGS. 2A and 2B depict the overexpressed LRRK2 levels in HEK 293T cells upon AICAr treatment. HEK293 cells were transfected with MYC-LRRK2 and treated with or without 1 mM AICAr for 48 hours. LRRK2 levels were analyzed by Western blot. FIGS. 2C and 2D depict the LRRK2 expression levels in SH-SY5Y cells upon AICAr treatment. Human neuroblastoma SH-SY5Y cells were treated with or without 1 mM AICAr for 48 hours. LRRK2 expression levels were analyzed by Western blot. FIGS. 2E and 2F depict the overexpressed (3-glucocerebrosidase (GCase) levels upon AICAr treatment. HEK 293T cells were transfected with V5-GCase and treated with or without 1 mM AICAr for 48 hours. GCase levels were analyzed by Western blot. FIGS. 2G-2N depict the LRRK2 expression levels in primary neurons (FIG. 2G and FIG. 2H), microglia (FIG. 2I and FIG. 2J), astrocytes (FIG. 2K and FIG. 2L) and human fibroblasts (FIG. 2M and FIG. 2N) upon AICAr treatment. Mouse primary cortical neurons, microglia, astrocytes or human fibroblasts from a health control were treated with or without 1 mM AICAr for 48 hours. LRRK2 expression levels were analyzed by Western blot. FIGS. 2O and 2P depict the overexpressed LRRK2 WT and pathogenic mutant levels upon AICAr treatment. HEK 293T cells were transfected with MYC-LRRK2 WT, R1441C (RC), R1441G (RG), Y1699C (YC), G2019S (GS) or I2020T (IT) and treated with or without 1 mM AICAr for 48 hours. LRRK2 expression levels were analyzed by Western blot. FIGS. 2Q and 2R depict the LRRK2 expression levels in mouse striatum upon AICAr treatment. AICAr (72 μg/day/animal) or saline (used as a control) was injected into mouse striatum via osmotic pumps. One day after injection, striatal tissues near the injection sites were collected and LRRK2 expression levels were analyzed by Western blot. Images were quantified by ImageJ software. Data are mean±SEM from total six mice (three male mice and three female mice). ****p<0.0001 by Student's t tests. […] FIG. 2T depicts the quantification of neuronal viability. Bars indicate the viability (n>100) for each transfection condition expressed as a percent of control neurons (eGFP with pcDNA3.1 empty vector). Data represent the mean±SEM from three independent experiments with n>100 cells quantified in each experiment. *p<0.05, ***p<0.001, ****p<0.0001 by one-way ANOVA followed by a Tukey's post hoc test.
FIGS. 3A-3J depict that AICAr regulates LRRK2 at mRNA level and through a specific region. […] LRRK2 expression levels were analyzed by Western blot. Images were quantified by ImageJ software. […] LRRK2 and GBA mRNA levels were analyzed by real-time PCR. […] LRRK2 mRNA levels were analyzed by real-time PCR. […]

[2] = test system: GBA mRNA; experiment: GBA mRNA levels by real-time PCR in SH-SY5Y cells; format: cell-based, human; settings: 2 mM, 24 hours
Method: (§1) Real-Time PCR (qPCR). SH-SY5Y WT or AUF1-KO cells were treated with or without 2 mM AICAr for 24 hours, and total RNA was extracted from 3×10^5 cells of each treatment using TRIzol™ Reagent (Invitrogen) as per the manufacturer's introductions. Real-Time PCR (qPCR) assay was performed using GoTaq® 2-Step RT-PCR System (Promega) as per the manufacturer's introductions. Briefly, total cDNA was reversely transcribed from RNA pools (1.5 μg RNA in a 10 μl reaction mixture) using random primers. The qPCR reaction was run in CFX96 qPCR detection system (Bio-Rad) with 3 μl cDNA (1:20 dilution) in a 10 μl reaction mixture (Table 3), and set at 95° C. for 2 minutes followed by 40 amplification cycles of 95° C. for 15 seconds, 60° C. for 1 min with a melting curve, 95° C. for 15 seconds, 60° C. for 1 min, a ramp from 60° C. to 95° C. at an 1% rate, and 95° C. for 15 seconds. Melt curves were monitored to assess qPCR amplicons, and critical threshold (Ct) values were collected with an enclosed software. Relative gene expression was analyzed by normalization against Ct values of f-ACTIN (housekeeping gene) and then determined by comparison with expression levels of control sample using the relative expression index (2-ΔΔCt) method.

[3] = test system: LRRK2; experiment: LRRK2 levels in human fibroblasts, Western blot; format: cell-based; settings: 1 mM, 48 hours
Method: FIGS. 2A-2T depicts that AICAr, the precursor of ATIC substrate, regulates LRRK2 expression levels and neuronal toxicity. FIGS. 2A and 2B depict the overexpressed LRRK2 levels in HEK 293T cells upon AICAr treatment. HEK293 cells were transfected with MYC-LRRK2 and treated with or without 1 mM AICAr for 48 hours. LRRK2 levels were analyzed by Western blot. FIGS. 2C and 2D depict the LRRK2 expression levels in SH-SY5Y cells upon AICAr treatment. Human neuroblastoma SH-SY5Y cells were treated with or without 1 mM AICAr for 48 hours. LRRK2 expression levels were analyzed by Western blot. FIGS. 2E and 2F depict the overexpressed (3-glucocerebrosidase (GCase) levels upon AICAr treatment. HEK 293T cells were transfected with V5-GCase and treated with or without 1 mM AICAr for 48 hours. GCase levels were analyzed by Western blot. FIGS. 2G-2N depict the LRRK2 expression levels in primary neurons (FIG. 2G and FIG. 2H), microglia (FIG. 2I and FIG. 2J), astrocytes (FIG. 2K and FIG. 2L) and human fibroblasts (FIG. 2M and FIG. 2N) upon AICAr treatment. Mouse primary cortical neurons, microglia, astrocytes or human fibroblasts from a health control were treated with or without 1 mM AICAr for 48 hours. LRRK2 expression levels were analyzed by Western blot. […] LRRK2 expression levels were analyzed by Western blot. […] Images were quantified by ImageJ software. […]

[4] = test system: LRRK2 mRNA; experiment: LRRK2 mRNA levels by real-time PCR in SH-SY5Y cells; format: cell-based, human; settings: 24 hours
Method: as §1

[5] = test system: LRRK2-G2019S transgenic flies; experiment: LRRK2-induced DA neurodegeneration in LRRK2-G2019S transgenic Drosophila; format: in vivo; settings: 9-week-old flies, fly food with 1 mM AICAr from posteclosion
From the text: Administration of AICAr into LRRK2 Drosophila. Ddc-GAL4 and UAS-GFP fly lines were obtained from Bloomington Stock Center. pUAST-attB-LRRK2 WT and G2019S were microinjected into Drosophila embryos (BestGene Inc.)^30. The resulting transgenic flies were crossed with Ddc-GAL4>UAS-GFP, which induces the co-expression of GFP, […] LRRK2 in dopamine and serotonin neurons. To study the effects of AICAr on LRRK2-induced dopaminergic neurodegeneration, flies were fed with regular fly food supplemented with 1 mM AICAr immediately at the posteclosion until 9-week-old.

NC(=O)c1ncn([C@@H]2O[C@H](CO)[C@@H](O)[C@H]2O)c1N [AICAr, 5-aminoimidazole-4-carboxamide riboside]
native LRRK2 cDNA expression ([1]; HEK 293T, Flag-LRRK2 native cDNA, 1 mM, 48 hours): great suppress
expression of synthesized LRRK2 cDNA with synonymous codons ([1]; HEK 293T, Flag-LRRK2 synthesized cDNA, 1 mM, 48 hours): no obvious effects
overexpressed LRRK2 levels ([1]; HEK293 cells transfected with MYC-LRRK2, 1 mM, 48 hours): decreased
chimeric LRRK2 cDNA expression ([1]; synthesized cDNA with region 2221-3927 bp replaced by native sequence): great suppression
GBA mRNA levels [2]: no changes
LRRK2 levels in fibroblasts [3]: significantly decrease
LRRK2 mRNA level in AUF1-KO cells ([4]; SH-SY5Y AUF1-KO cells): minimal effect
LRRK2 mRNA levels ([4]; SH-SY5Y WT, 2 mM, real-time PCR): significantly decreased
LRRK2-GS induced DA neurodegeneration (DA neuron numbers) [5]: rescued
